Source: ChEMBL document CHEMBL5608215, “Development of amphipathic derivatives of thymol and carvacrol as potent broad-spectrum antibacterial agents” (Eur J Med Chem, 2024)
Activity calls are given as the source filed them. The rule behind the calls is not given here.

Columns and labels:
Pseudomonas aeruginosa = assay: Antibacterial activity against Pseudomonas aeruginosa ATCC27853 by CLSI based serial dilution method; type: functional
Escherichia coli [1] = assay: Bactericidal activity against Escherichia coli ATCC25922 at MIC incubated for 12 hrs by time-kill assay relative to control; type: functional
Escherichia coli [2] = assay: Antibacterial activity against Escherichia coli ATCC25922 assessed as cell membrane damage incubated for 8 mins by SYTOX Green uptake assay; type: functional, organism-based
Staphylococcus aureus [3] = assay: Antibacterial activity against Staphylococcus aureus ATCC29213 infected in mouse model assessed as reduction in abscesses size at 5 to 10 mg/kg, sc measured after 24 hrs; type: functional, organism-based; conditions: dose 5-10 mg/kg
[4] = Toxicity in KM mouse assessed as histopathological abnormality in lung upto 40 mg/kg, ip measured for 24 hrs by H and E staining based analysis; type: organism-based; conditions: in vivo
Escherichia coli [5] = assay: Bactericidal activity against Escherichia coli ATCC25922 assessed as inhibition of bacterial regrowth at 8 times MIC incubated for 24 hrs by time-kill assay; type: functional, organism-based
Staphylococcus aureus [6] = assay: Antibacterial activity against Staphylococcus aureus ATCC25923 upto 32 ug/ml incubated for 16 to 18 hrs in presence of peptidoglycan; type: functional, organism-based; conditions: dose <= 32.0 µg/ml, time 16-18 hrs
[7] = Toxicity in KM mouse assessed as animal survival upto 40 mg/kg, ip measured for 24 hrs; type: organism-based; conditions: in vivo
Staphylococcus aureus [8] = assay: Bactericidal activity against Staphylococcus aureus ATCC29213 incubated upto 24 hrs by time-kill assay; type: functional, organism-based
Escherichia coli [9] = assay: Antibacterial activity against Escherichia coli ATCC25922 by CLSI based serial dilution method; type: functional
Escherichia coli [10] = assay: Bactericidal activity against Escherichia coli ATCC25922 at 8 times MIC incubated for 12 hrs by time-kill assay relative to control; type: functional
Staphylococcus aureus [11] = assay: Antibacterial activity against Staphylococcus aureus ATCC29213 assessed as cell surface disruption at 8 times MIC by SEM analysis; type: functional, organism-based
Enterococcus faecalis = assay: Antibacterial activity against Enterococcus faecalis ATCC29212 assessed as cell surface wrinkling at 8 times MIC by SEM analysis; type: functional, organism-based
Staphylococcus aureus [12] = assay: Antibacterial activity against Staphylococcus aureus ATCC29213 assessed as cell surface wrinkling at 8 times MIC by SEM analysis; type: functional, organism-based
Staphylococcus aureus [13] = assay: Bactericidal activity against Staphylococcus aureus ATCC29213 at 8 times MIC incubated for 24 hrs by time-kill assay relative to control; type: functional
[14] = Toxicity in KM mouse assessed as damage in heart upto 40 mg/kg, ip measured for 24 hrs by H and E staining based analysis; type: organism-based; conditions: in vivo
Escherichia coli [15] = assay: Bactericidal activity against Escherichia coli ATCC25922 assessed as log reduction in bacterial growth at MIC incubated for 12 hrs by time-kill assay; type: functional

Q: With CCCCCCCNC(=O)C[N+](C)(C)CCCCOc1cc(C)ccc1C(C)C.[Br-] as the compound, how does the MIC (Pseudomonas aeruginosa) read?
A: The MIC was 8 µg/mL.

Q: And the Activity (Escherichia coli [1])?
A: The Activity was 99.99%.

Q: What about the Activity (Escherichia coli [2]) of the same compound?
A: Its Activity is “Dose-Dependent Effect”.

Q: What about the Activity (Staphylococcus aureus [3]) of the same compound?
A: The Activity was “Active”.

Q: And the Activity [4]?
A: Its Activity is “Non-Toxic”.

Q: And the inhibition (Escherichia coli [5])?
A: The inhibition was “Active”.

Q: What about the Activity (Staphylococcus aureus [6]) of the same compound?
A: The Activity was “Active”.

Q: And the Activity [7]?
A: Its Activity is “Non-Toxic”.

Q: And the Activity (Staphylococcus aureus [8])?
A: Its Activity is “Dose-Dependent Effect”.

Q: What about the MIC (Escherichia coli [9]) of the same compound?
A: The MIC was 2 µg/mL.

Q: What about the Activity (Escherichia coli [10]) of the same compound?
A: Its Activity is 100%.

Q: And the Activity (Staphylococcus aureus [11])?
A: Its Activity is “Active”.

Q: And the Activity (Enterococcus faecalis)?
A: Its Activity is “Active”.

Q: And the Activity (Staphylococcus aureus [12])?
A: The Activity was “Active”.

Q: What about the Activity (Staphylococcus aureus [13]) of the same compound?
A: Its Activity is over 99.9%.

Q: What about the Activity [14] of the same compound?
A: The Activity was “Non-Toxic”.

Q: What about the Activity (Escherichia coli [15]) of the same compound?
A: The Activity was over 4 log10CFU/ml.
